From patent US8785499B2 (priority 2009, dated 2014)

Experiments:
baNadD = baNadD (Bacillus anthracis, UniProt C3L5T6); assay: biochemical; type: biochemical; details: for IC50: IC50 baNadD; for inhibition at 50 µM: read-out: INHIBITION (%) B. anthracis
ecNadD = ecNadD (Escherichia coli (strain K12), UniProt P0A752); assay: biochemical; type: biochemical; details: for IC50: IC50 ecNadD; for inhibition at 100 µM: read-out: INHIBITION (%) E. coli

baNadD, sequence (C3L5T6 whole entry, looked up): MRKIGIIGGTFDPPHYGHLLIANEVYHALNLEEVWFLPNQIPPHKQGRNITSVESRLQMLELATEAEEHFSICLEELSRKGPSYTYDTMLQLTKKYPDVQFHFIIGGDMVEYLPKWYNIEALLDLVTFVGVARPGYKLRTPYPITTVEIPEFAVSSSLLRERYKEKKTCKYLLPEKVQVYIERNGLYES

Structure (SMILES) | inhibition at 50 µM (baNadD) [%] | inhibition at 100 µM (ecNadD) [%] | further results
Nc1c(C(=O)Nc2cccc(Cl)c2)sc2nc(-c3ccc(F)cc3)ccc12 [03_16] | 83 | 46 | IC50 (baNadD): 35 µM; IC50 (ecNadD): 50 µM
Nc1c(C(=O)Nc2cc(F)ccc2F)sc2nc(-c3cccs3)ccc12 [03_18] |  |  | INHIBITION (%) B. anthracis (baNadD): 71% 14; IC50 (baNadD): 14 µM; INHIBITION (%) E. coli (ecNadD): 41% 35; IC50 (ecNadD): 35 µM
Nc1c(C(=O)Nc2ccc(Cl)cc2F)sc2nc(-c3ccc(F)cc3)ccc12 [03_19] | 61 | 32 | 
Nc1c(C(=O)Nc2c(Cl)cccc2Cl)sc2nc(-c3cccnc3)ccc12 [03_20] | 11 | 24 | IC50 (baNadD): > 200 µM; IC50 (ecNadD): > 200 µM
NC(=O)c1sc2nc(-c3ccc(F)cc3)cc(-c3ccccc3)c2c1N [03_21] | 58 | 22 | 
Nc1c(C(=O)Nc2ccc(F)c(Cl)c2)sc2nc(-c3ccncc3)ccc12 [03_22] | 83 | 21 | IC50 (baNadD): 39 µM; IC50 (ecNadD): 100 µM
Nc1c(C(=O)Nc2ccc(F)c(F)c2)sc2nc(-c3ccc(F)cc3)ccc12 [03_24] | 5 | 9 | IC50 (baNadD): > 200 µM; IC50 (ecNadD): > 200 µM
Nc1c(C(=O)Nc2ccc(F)cc2)sc2nc(-c3ccc(F)cc3)ccc12 [03_25] | 1 | 8 | 
Nc1c(C(=O)Nc2ccc(F)c(F)c2)sc2nc(-c3ccncc3)ccc12 [03_26] | 23 | 7 | 
Nc1c(C(=O)Nc2ccc(F)cc2F)sc2nc(-c3ccncc3)ccc12 [03_27] | 20 | 0 | 
Nc1c(C(=O)Nc2cc(Cl)cc(Cl)c2)sc2nc(-c3ccncc3)ccc12 [03_28] | 0 | 0 | 
Nc1c(C(=O)Nc2ccc(Cl)cc2)sc2nc(-c3ccncc3)ccc12 [03_29] | 0 | 0 | 
Cc1ccc(N/C=C2\C(=O)Nc3ccccc32)cc1Cl [15_01] | 37 | 24 | IC50 (baNadD): > 200 µM; IC50 (ecNadD): > 200 µM
Cc1ccc(N/C=C2\C(=O)Nc3ccccc32)c(C)c1 [15_02] | 29 | 20 | 
CN(C)c1ccc(N/C=C2\C(=O)Nc3ccccc32)cc1 [15_03] | 27 | 19 | 
Cc1ccc(C)c(N/C=C2\C(=O)Nc3ccccc32)c1 [15_04] | 26 | 18 | 
O=C1Nc2ccccc2/C1=C/NCc1cccnc1 [15_05] | 23 | 17 | 
O=C1Nc2ccccc2/C1=C/Nc1ccc(F)cc1 [15_06] | 49 | 15 | 
O=C1Nc2ccccc2/C1=C/Nc1cccc(Cl)c1 [15_07] | 45 | 15 | 
COC(=O)c1ccccc1N/C=C1\C(=O)Nc2ccccc21 [15_08] | 0 | 14 | 

Structure (SMILES) | inhibition at 50 µM (baNadD) [%] | inhibition at 100 µM (ecNadD) [%] | further results
O=C1Nc2ccccc2/C1=C/Nc1ccc(Br)cc1 [15_09] | 60 | 13 | IC50 (baNadD): 111 µM; IC50 (ecNadD): > 200 µM
Cc1cccc(N/C=C2\C(=O)Nc3ccccc32)c1C [15_10] | 26 | 13 | 
CSc1ccc(N/C=C2\C(=O)Nc3ccccc32)cc1 [15_12] | 25 | 12 | 
Cc1c(Cl)cccc1N/C=C1\C(=O)Nc2ccccc21 [15_13] | 36 | 12 | 
Cc1ccc(N/C=C2\C(=O)Nc3ccccc32)cc1C [15_14] | 70 | 12 | IC50 (baNadD): 74 µM; IC50 (ecNadD): 88 µM
O=C1Nc2ccccc2/C1=C/Nc1cccnc1 [15_15] | 10 | 12 | 
O=C1Nc2ccccc2/C1=C/NCc1ccccc1 [15_16] | 6 | 11 | 
O=C1Nc2ccccc2/C1=C/Nc1ccccc1F [15_17] | 22 | 11 | 
CSc1cccc(N/C=C2\C(=O)Nc3ccccc32)c1 [15_18] | 24 | 11 | 
Cc1ccc(N/C=C2\C(=O)Nc3ccccc32)c(Cl)c1 [15_19] | 14 | 11 | 
Cc1cccc(N/C=C2\C(=O)Nc3ccccc32)n1 [15_20] | 8 | 11 | 
Cc1cc(C)c(N/C=C2\C(=O)Nc3ccccc32)c(C)c1 [15_21] | 30 | 10 | 
O=C1Nc2ccccc2/C1=C/Nc1ccc(F)cc1F [15_22] | 28 | 10 | 
Cc1cc(C)cc(N/C=C2\C(=O)Nc3ccccc32)c1 [15_23] | 32 | 10 | 
CCc1ccc(N/C=C2\C(=O)Nc3ccccc32)cc1 [15_24] | 17 | 9 | 
COc1ccc(N/C=C2\C(=O)Nc3ccccc32)cc1 [15_25] | 16 | 9 | 
O=C1Nc2ccccc2/C1=C/Nc1ccccc1Br [15_26] | 8 | 8 | 
CCc1ccccc1N/C=C1\C(=O)Nc2ccccc21 [15_27] | 42 | 8 | IC50 (baNadD): > 200 µM; IC50 (ecNadD): > 200 µM
Cc1cccc(N/C=C2\C(=O)Nc3ccccc32)c1 [15_28] | 24 | 8 | IC50 (baNadD): > 200 µM; IC50 (ecNadD): > 200 µM
Cc1ccc(N/C=C2\C(=O)Nc3ccccc32)cc1 [15_29] | 38 | 7 | 

Structure (SMILES) | inhibition at 50 µM (baNadD) [%] | inhibition at 100 µM (ecNadD) [%] | further results
CC(C)c1ccc(N/C=C2\C(=O)Nc3ccccc32)cc1 [15_30] | 42 | 7 | 
Cc1ccccc1N/C=C1\C(=O)Nc2ccccc21 [15_31] | 27 | 7 | IC50 (baNadD): 112 µM; IC50 (ecNadD): 118 µM
O=C1Nc2ccccc2/C1=C/NCCc1ccccc1 [15_32] | 4 | 7 | 
O=C1Nc2ccccc2/C1=C/NC1CCCCC1 [15_33] | 15 | 6 | 
CC(C)N/C=C1\C(=O)Nc2ccccc21 [15_34] | 9 | 4 | 
CC(=O)c1cccc(N/C=C2\C(=O)Nc3ccccc32)c1 [15_35] | 19 | 4 | 
Cc1cccc(C)c1N/C=C1\C(=O)Nc2ccccc21 [15_36] | 11 | 4 | 
COc1cccc(N/C=C2\C(=O)Nc3ccccc32)c1 [15_37] | 1 | 4 | 
Cc1ccc(CN/C=C2\C(=O)Nc3ccccc32)cc1 [15_38] | 17 | 3 | 
CC(N/C=C1\C(=O)Nc2ccccc21)c1ccccc1 (centres unmarked) [15_39] | 18 | 3 | 
O=C1Nc2ccccc2/C1=C/Nc1ccccc1C(=O)O [15_40] | 0 | 1 | 
CCc1cccc(C)c1N/C=C1\C(=O)Nc2ccccc21 [15_41] | 13 | 0 | 
CC(=O)c1ccc(N/C=C2/C(=O)Nc3ccccc32)cc1 [15_42] | 11 | 0 | 
O=C(CCC(=O)Nc1ccc(I)cc1)N/N=C/c1c2ccccc2cc2ccccc12 [compound 001] | 88 | 79 | IC50 (baNadD): 21 µM; IC50 (ecNadD): 15 µM
S=C(N/N=C/c1ccccc1Cl)Nc1cc(Cl)ccc1Cl [compound 002] |  |  | […]. anthracis (baNadD): 85%; […]. coli (ecNadD): 76%
Nc1c(C(=O)Nc2cccc(Cl)c2Cl)sc2nc(-c3cccs3)ccc12 [compound 003] | 40 | 73 | 
O=C(O)c1cc([N+](=O)[O-])ccc1Sc1cccs1 [compound 005] |  |  | […]. anthracis (baNadD): 44%; […]. coli (ecNadD): 71%
Brc1cnc2nc(/C=C/c3ccccc3)[nH]c2c1 [compound 006] |  |  | […]. anthracis (baNadD): 34%; […]. coli (ecNadD): 62%
